pIC50: −log10 of the molar value.
What was measured:
SMYD3 [1] = molecular target: T1, SMYD3 (Homo sapiens (Human), UniProt Q9H7B4); assay: SMYD3 biochemical assay (SPA, 3H-SAM methylation of MEKK2 protein substrate); settings: read-out: SMYD3 Biochem IC50*
Method in brief: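 Tritium incorporation into GST-MEKK2 is counted by scintillation proximity after citric acid bead capture. Native human SMYD3 is preincubated with test compound for 30 min at room temperature at pH 8.0 (Tris-Cl, TCEP, BSG, Tween 20) before 3H-SAM and substrate are added; cold SAM at 100 uM final stops turnover.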

SMYD3 [2] = molecular target: T1, SMYD3; assay: SMYD3 cell assay (Trimethyl-MEKK2 In-Cell Western in 293T/17 cells); format: cell-based; settings: read-out: SMYD3 Cell IC50*
Method in brief: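 In-Cell Western ratio of trimethyl-Lys260 MEKK2 to anti-flag signal; percent inhibition from DMSO and maximum-inhibition controls, IC50 by non-linear regression, triplicates.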

T1 sequence (Q9H7B4 whole entry): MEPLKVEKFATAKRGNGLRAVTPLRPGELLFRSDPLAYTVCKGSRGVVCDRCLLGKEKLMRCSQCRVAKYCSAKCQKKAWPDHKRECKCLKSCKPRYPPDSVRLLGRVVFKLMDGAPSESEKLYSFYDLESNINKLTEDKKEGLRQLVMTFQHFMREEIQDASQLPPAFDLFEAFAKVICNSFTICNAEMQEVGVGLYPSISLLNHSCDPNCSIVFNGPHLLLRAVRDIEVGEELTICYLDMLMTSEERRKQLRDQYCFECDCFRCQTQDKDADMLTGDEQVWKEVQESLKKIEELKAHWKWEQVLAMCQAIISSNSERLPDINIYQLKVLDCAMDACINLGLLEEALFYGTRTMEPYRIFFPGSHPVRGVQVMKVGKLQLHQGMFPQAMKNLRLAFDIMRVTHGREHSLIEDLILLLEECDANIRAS

SMILES	pIC50 (SMYD3 [1])	pIC50 (SMYD3 [2])
CCN1C2CCC1CN(S(=O)(=O)N1[C@@H]3CC[C@H]1C[C@@H](NC(=O)c1cc(C4CC4)on1)C3)C2 [compound 822, 5-cyclopropyl-N-((1R,3r,5S)-8-((8-ethyl-3,8-diazabicyclo[3.2.1]octan-3-yl)sulfonyl)-8-azabicyclo[3.2.1]octan-3-yl)isoxazole-3-carboxamide]	8.46	7.36
C[C@H]1C[C@@H](NC(=O)c2cc(C3CC3)on2)CCN1S(=O)(=O)CC1CCC(N(C)C)C1 (stereo partly drawn) [compound 823, 5-cyclopropyl-N-((2S,4S)-1-(((3-(dimethylamino)cyclopentyl)methyl)sulfonyl)-2-memylpiperidin-4-yl)isoxazole-3-carboxamide]	8.46	7.17
O=C(N[C@H]1C[C@H]2CC[C@@H](C1)N2S(=O)(=O)N1CC2(CCN(Cc3ccccc3)CC2)C1)c1cc(C2CC2)on1 [compound 824, N-((1R,3r,5S)-8-((7-benzyl-2,7-diazaspiro[3.5]nonan-2-yl)sulfonyl)-8-azabicyclo[3.2.1]octan-3-yl)-5-cyclopropylisoxazole-3-carboxamide]	8.41	7.09
COCCN[C@H]1CC[C@H](S(=O)(=O)N2[C@@H]3CC[C@H]2C[C@@H](NC(=O)c2cc(C4CC4)on2)C3)CC1 [compound 825, 5-cyclopropyl-N-((1R,3R,5S)-8-(((1r,4R)-4-((2-methoxyemyl)amino)cyclohexyl)sulfonyl)-8-azabicyclo[3.2.1]octan-3-yl)isoxazole-3-carboxamide]	8.41	7.26
COCCN[C@H]1CC[C@@H](S(=O)(=O)N2[C@@H]3CC[C@H]2C[C@@H](NC(=O)c2cc(C4CC4)on2)C3)CC1 [compound 826, 5-cyclopropyl-N-((1R,3R,5S)-8-(((1s,4S)-4-((2-methoxyethyl)amino)cyclohexyl)sulfonyl)-8-azabicyclo[3.2.1]octan-3-yl)isoxazole-3-carboxamide]	8.41	7.23
C[C@H]1C[C@@H](NC(=O)c2cc(C3CC3)on2)CCN1S(=O)(=O)CC1CCCC(N)C1 (stereo partly drawn) [compound 827, N-((2S,4S)-1-(((3-aminocyclohexyl)methyl)sulfonyl)-2-methylpiperidin-4-yl)-5-cyclopropylisoxazole-3-carboxamide]	8.40	7.14
C[C@H]1C[C@@H](NC(=O)c2cc(C3CC3)on2)CCN1S(=O)(=O)N1C2CNCC1C2 [compound 828, N-((2S,4S)-1-((3,6-diazabicyclo[3.1.1]heptan-6-yl)sulfonyl)-2-methylpiperidin-4-yl)-5-cyclopropylisoxazole-3-carboxamide]	8.38	6.83
CCNC1CCN(S(=O)(=O)N2CC[C@H](NC(=O)c3cc(C4CC4)on3)C[C@@H]2C)CC1 [compound 829, 5-cyclopropyl-N-((2S,4S)-1-((4-(ethylamino)piperidin-1-yl)sulfonyl)-2-methylpiperidin-4-yl)isoxazole-3-carboxamide]	8.37	7.15
NCC1CCN(S(=O)(=O)N2[C@@H]3CC[C@H]2C[C@@H](NC(=O)c2cc(C4CC4)on2)C3)CC1 [compound 830, N-((1R,3r,5S)-8-((4-(aminomethyl)piperidin-1-yl)sulfonyl)-8-azabicyclo[3.2.1]octan-3-yl)-5-cyclopropylisoxazole-3-carboxamide]	8.36	5.81
CC1CN(S(=O)(=O)N2[C@@H]3CC[C@H]2C[C@@H](NC(=O)c2cc(C4CC4)on2)C3)CCC1N (stereo partly drawn) [compound 831, N-((1R,3r,5S)-8-((4-amino-3-methylpiperidin-1-yl)sulfonyl)-8-azabicyclo[3.2.1]octan-3-yl)-5-cyclopropylisoxazole-3-carboxamide]	8.36	7.07
O=C(N[C@H]1C[C@H]2CC[C@@H](C1)N2S(=O)(=O)N1C2CNCC1C2)c1cc(C2CC2)on1 [compound 832, N-((1R,3r,5S)-8-((3,6-diazabicyclo[3.1.1]heptan-6-yl)sulfonyl)-8-azabicyclo[3.2.1]octan-3-yl)-5-cyclopropylisoxazole-3-carboxamide]	8.36	6.87
CCc1cc(C(=O)N[C@H]2C[C@H]3CC[C@@H](C2)N3S(=O)(=O)[C@H]2CC[C@@H](NCCO)CC2)no1 [compound 833, 5-ethyl-N-((1R,3R,5S)-8-(((1s,4S)-4-((2-hydroxyethyl)amino)cyclohexyl)sulfonyl)-8-azabicyclo[3.2.1]octan-3-yl)isoxazole-3-carboxamide]	8.35	7.14
CN(CCCO)C1CCN(S(=O)(=O)N2[C@@H]3CC[C@H]2C[C@@H](NC(=O)c2cc(C4CC4)on2)C3)CC1 [compound 834, 5-cyclopropyl-N-((1R,3r,5S)-8-((4-((3-hydroxypropyl)(methyl)amino)piperidin-1-yl)sulfonyl)-8-azabicyclo[3.2.1]octan-3-yl)isoxazole-3-carboxamide]	8.34	7.31
O=C(N[C@H]1C[C@H]2CC[C@@H](C1)N2S(=O)(=O)N1CCC2(CCCN2)CC1)c1cc(C2CC2)on1 [compound 835, N-((1R,3r,5S)-8-((1,8-diazaspiro[4.5]decan-8-yl)sulfonyl)-8-azabicyclo[3.2.1]octan-3-yl)-5-cyclopropylisoxazole-3-carboxamide]	8.33	6.93
C[C@H]1C[C@@H](NC(=O)c2cc(C3CC3)on2)CCN1S(=O)(=O)C[C@H]1CCC[C@H](N)C1 [compound 836, N-((2S,4S)-1-((((1S,3S)-3-aminocyclohexyl)methyl)sulfonyl)-2-methylpiperidin-4-yl)-5-cyclopropylisoxazole-3-carboxamide]	8.33	7.05
C[C@H]1CN(S(=O)(=O)[C@H]2CC[C@H](N(C)C)CC2)CC[C@H]1NC(=O)c1cc(C2CC2)on1 [compound 837, 5-cyclopropyl-N-((3S,4R)-1-(((1r,4S)-4-(dimethylamino)cyclohexyl)sulfonyl)-3-methylpiperidin-4-yl)isoxazole-3-carboxamide]	8.32	7.07
CN(CCCC(F)(F)F)C1CCN(S(=O)(=O)N2[C@@H]3CC[C@H]2C[C@@H](NC(=O)c2cc(C4CC4)on2)C3)CC1 [compound 838, 5-cyclopropyl-N-((1R,3r,5S)-8-((4-(methyl(4,4,4-trifluorobutyl)amino)piperidin-1-yl)sulfonyl)-8-azabicyclo[3.2.1]octan-3-yl)isoxazole-3-carboxamide]	8.31	7.28
C[C@H]1C[C@@H](NC(=O)c2cc(C3CC3)on2)CCN1S(=O)(=O)N1CCC(N(C)Cc2ccccc2)CC1 [compound 839, N-((2S,4S)-1-((4-(benzyl(methyl)amino)piperidin-1-yl)sulfonyl)-2-methylpiperidin-4-yl)-5-cyclopropylisoxazole-3-carboxamide]	8.30	6.81
O=C(N[C@H]1C[C@H]2CC[C@@H](C1)N2S(=O)(=O)N1CC2CC1CN2)c1cc(C2CC2)on1 [compound 840, N-((1R,3r,5S)-8-((2,5-diazabicyclo[2.2.1]heptan-2-yl)sulfonyl)-8-azabicyclo[3.2.1]octan-3-yl)-5-cyclopropylisoxazole-3-carboxamide]	8.30	7.25

Source: patent US10577363B2, “Substituted piperidine compounds” (EPIZYME, INC., priority 2014, dated 2020)
